Square brackets hold non-standard residues; d marks the D form. Peptide text beside a SMILES is read from it. * marks the point of attachment. X1 = C=CCOC(=O)[C@]12CC[C@@H](C(=C)C)[C@@H]1[C@H]1CC[C@@H]3[C@@]4(C)CC[C@H](OC(=O)CCc5cn(CC(=O)*)nn5)C(C)(C)[C@@H]4CC[C@@]3(C)[C@]1(C)CC2; X9 = C=CCOC(=O)[C@]12CC[C@@H](C)[C@H](C)[C@H]1C1=CC[C@@H]3[C@@]4(C)CC[C@H](OC(=O)CCc5cn(CC(=O)*)nn5)C(C)(C)[C@@H]4CC[C@@]3(C)[C@]1(C)CC2; X3 = C=C(C)[C@@H]1CC[C@]2(C(=O)O)CC[C@]3(C)[C@H](CC[C@@H]4[C@@]5(C)CC[C@H](OC(=O)CCc6cn(CC(=O)*)nn6)C(C)(C)[C@@H]5CC[C@]43C)[C@@H]12; X5 = C=C(C)[C@@H]1CC[C@]2(C(=O)OCc3cn(CC(=O)*)nn3)CC[C@]3(C)[C@H](CC[C@@H]4[C@@]5(C)CC[C@H](OC(C)=O)C(C)(C)[C@@H]5CC[C@]43C)[C@@H]12; X2 = C=CCOC(=O)[C@]12CCC(C)(C)C[C@H]1C1=CC[C@@H]3[C@@]4(C)CC[C@H](OC(=O)CCc5cn(CC(=O)*)nn5)C(C)(C)[C@@H]4CC[C@@]3(C)[C@]1(C)CC2; X4 = C=C(C)[C@@H]1CC[C@]2(C(=O)OCc3cn(CC(=O)*)nn3)CC[C@]3(C)[C@H](CC[C@@H]4[C@@]5(C)CC[C@H](O)C(C)(C)[C@@H]5CC[C@]43C)[C@@H]12; X11 = CCCc1cn(CC(=O)*)nn1; βAla = NCCC(=O)O
Experiment: Inhibition of HIV1 gp41-induced cell-cell fusion between viral envelope expressing human HL2/3 cells to CD4/CCR5 receptor expressing TZM-bl cells after 6 to 8 hrs by luciferase assay

Row | Structure (SMILES) | EC50
1 | C=C(C)[C@@H]1CC[C@]2(C(=O)O)CC[C@]3(C)[C@H](CC[C@@H]4[C@@]5(C)CC[C@H](O)C(C)(C)[C@@H]5CC[C@]43C)[C@@H]12 | > 100000 nM
2 | CC[C@H](C)[C@H](NC(=O)[C@H](CC(C)C)NC(=O)[C@H](CO)NC(=O)[C@H](Cc1cnc[nH]1)NC(=O)[C@@H](NC(=O)[C@H](CC(C)C)NC(=O)[C@H](CO)NC(=O)[C@@H](NC(=O)[C@H](Cc1ccc(O)cc1)NC(=O)[C@H](CC(N)=O)NC(=O)[C@H](CC(N)=O)NC(C)=O)[C@@H](C)O)[C@@H](C)CC)C(=O)N[C@@H](CCC(=O)O)C(=O)N[C@@H](CCC(=O)O)C(=O)N[C@@H](CO)C(=O)N[C@@H](CCC(N)=O)C(=O)N[C@@H](CC(N)=O)C(=O)N[C@@H](CCC(N)=O)C(=O)N[C@@H](CCC(N)=O)C(=O)N[C@@H](CCC(=O)O)C(=O)N[C@@H](CCCCN)C(=O)N[C@@H](CC(N)=O)C(=O)N[C@@H](CCC(=O)O)C(=O)N[C@@H](CCC(N)=O)C(=O)N[C@@H](CCC(=O)O)C(=O)N[C@@H](CC(C)C)C(=O)N[C@@H](CC(C)C)C(N)=O (Ac-NNYTSLIHSLIEESQNQQEKNEQELL-NH2) | 3240 nM
3 | C=CCOC(=O)[C@]12CCC(C)(C)C[C@H]1C1=CC[C@@H]3[C@@]4(C)CC[C@H](OC(=O)CCc5cn(CC(=O)NCCCC[C@H](NC(=O)CCNC(=O)[C@H](CC(C)C)NC(=O)[C@H](CC(C)C)NC(=O)[C@H](CCC(=O)O)NC(=O)[C@H](CCC(N)=O)NC(=O)[C@H](CCC(=O)O)NC(=O)[C@H](CC(N)=O)NC(=O)[C@H](CCCCN)NC(=O)[C@H](CCC(=O)O)NC(=O)[C@H](CCC(N)=O)NC(=O)[C@H](CCC(N)=O)NC(=O)[C@H](CC(N)=O)NC(=O)[C@H](CCC(N)=O)NC(=O)[C@H](CO)NC(=O)[C@H](CCC(=O)O)NC(=O)[C@H](CCC(=O)O)NC(=O)[C@@H](NC(=O)[C@H](CC(C)C)NC(=O)[C@H](CO)NC(=O)[C@H](Cc6cnc[nH]6)NC(=O)[C@@H](NC(=O)[C@H](CC(C)C)NC(=O)[C@H](CO)NC(=O)[C@@H](NC(=O)[C@H](Cc6ccc(O)cc6)NC(=O)[C@H](CC(N)=O)NC(=O)[C@H](CC(N)=O)NC(C)=O)[C@@H](C)O)[C@@H](C)CC)[C@@H](C)CC)C(N)=O)nn5)C(C)(C)[C@@H]4CC[C@@]3(C)[C@]1(C)CC2 (Ac-NNYTSLIHSLIEESQNQQEKNEQELL[βAla]K(X2)-NH2) | 3.3 nM
4 | C=C(C)[C@@H]1CC[C@]2(C(=O)O)CC[C@]3(C)[C@H](CC[C@@H]4[C@@]5(C)CC[C@H](OC(=O)CCc6cn(CC(=O)NCCCC[C@H](NC(=O)CCNC(=O)[C@H](CC(C)C)NC(=O)[C@H](CC(C)C)NC(=O)[C@H](CCC(=O)O)NC(=O)[C@H](CCC(N)=O)NC(=O)[C@H](CCC(=O)O)NC(=O)[C@H](CC(N)=O)NC(=O)[C@H](CCCCN)NC(=O)[C@H](CCC(=O)O)NC(=O)[C@H](CCC(N)=O)NC(=O)[C@H](CCC(N)=O)NC(=O)[C@H](CC(N)=O)NC(=O)[C@H](CCC(N)=O)NC(=O)[C@H](CO)NC(=O)[C@H](CCC(=O)O)NC(=O)[C@H](CCC(=O)O)NC(=O)[C@@H](NC(=O)[C@H](CC(C)C)NC(=O)[C@H](CO)NC(=O)[C@H](Cc7cnc[nH]7)NC(=O)[C@@H](NC(=O)[C@H](CC(C)C)NC(=O)[C@H](CO)NC(=O)[C@@H](NC(=O)[C@H](Cc7ccc(O)cc7)NC(=O)[C@H](CC(N)=O)NC(=O)[C@H](CC(N)=O)NC(C)=O)[C@@H](C)O)[C@@H](C)CC)[C@@H](C)CC)C(N)=O)nn6)C(C)(C)[C@@H]5CC[C@]43C)[C@@H]12 (Ac-NNYTSLIHSLIEESQNQQEKNEQELL[βAla]K(X3)-NH2) | 44 nM
5 | C=C(C)[C@@H]1CC[C@]2(C(=O)OCc3cn(CC(=O)NCCCC[C@H](NC(=O)CCNC(=O)[C@H](CC(C)C)NC(=O)[C@H](CC(C)C)NC(=O)[C@H](CCC(=O)O)NC(=O)[C@H](CCC(N)=O)NC(=O)[C@H](CCC(=O)O)NC(=O)[C@H](CC(N)=O)NC(=O)[C@H](CCCCN)NC(=O)[C@H](CCC(=O)O)NC(=O)[C@H](CCC(N)=O)NC(=O)[C@H](CCC(N)=O)NC(=O)[C@H](CC(N)=O)NC(=O)[C@H](CCC(N)=O)NC(=O)[C@H](CO)NC(=O)[C@H](CCC(=O)O)NC(=O)[C@H](CCC(=O)O)NC(=O)[C@@H](NC(=O)[C@H](CC(C)C)NC(=O)[C@H](CO)NC(=O)[C@H](Cc4cnc[nH]4)NC(=O)[C@@H](NC(=O)[C@H](CC(C)C)NC(=O)[C@H](CO)NC(=O)[C@@H](NC(=O)[C@H](Cc4ccc(O)cc4)NC(=O)[C@H](CC(N)=O)NC(=O)[C@H](CC(N)=O)NC(C)=O)[C@@H](C)O)[C@@H](C)CC)[C@@H](C)CC)C(N)=O)nn3)CC[C@]3(C)[C@H](CC[C@@H]4[C@@]5(C)CC[C@H](O)C(C)(C)[C@@H]5CC[C@]43C)[C@@H]12 (Ac-NNYTSLIHSLIEESQNQQEKNEQELL[βAla]K(X4)-NH2) | 20 nM
6 | C=C(C)[C@@H]1CC[C@]2(C(=O)OCc3cn(CC(=O)NCCCC[C@H](NC(=O)CCNC(=O)[C@H](CC(C)C)NC(=O)[C@H](CC(C)C)NC(=O)[C@H](CCC(=O)O)NC(=O)[C@H](CCC(N)=O)NC(=O)[C@H](CCC(=O)O)NC(=O)[C@H](CC(N)=O)NC(=O)[C@H](CCCCN)NC(=O)[C@H](CCC(=O)O)NC(=O)[C@H](CCC(N)=O)NC(=O)[C@H](CCC(N)=O)NC(=O)[C@H](CC(N)=O)NC(=O)[C@H](CCC(N)=O)NC(=O)[C@H](CO)NC(=O)[C@H](CCC(=O)O)NC(=O)[C@H](CCC(=O)O)NC(=O)[C@@H](NC(=O)[C@H](CC(C)C)NC(=O)[C@H](CO)NC(=O)[C@H](Cc4cnc[nH]4)NC(=O)[C@@H](NC(=O)[C@H](CC(C)C)NC(=O)[C@H](CO)NC(=O)[C@@H](NC(=O)[C@H](Cc4ccc(O)cc4)NC(=O)[C@H](CC(N)=O)NC(=O)[C@H](CC(N)=O)NC(C)=O)[C@@H](C)O)[C@@H](C)CC)[C@@H](C)CC)C(N)=O)nn3)CC[C@]3(C)[C@H](CC[C@@H]4[C@@]5(C)CC[C@H](OC(C)=O)C(C)(C)[C@@H]5CC[C@]43C)[C@@H]12 (Ac-NNYTSLIHSLIEESQNQQEKNEQELL[βAla]K(X5)-NH2) | 7.9 nM
7 | C=CCOC(=O)[C@]12CC[C@@H](C)[C@H](C)[C@H]1C1=CC[C@@H]3[C@@]4(C)CC[C@H](OC(=O)CCc5cn(CC(=O)NCCCC[C@H](NC(=O)CCNC(=O)[C@H](CC(C)C)NC(=O)[C@H](CC(C)C)NC(=O)[C@H](CCC(=O)O)NC(=O)[C@H](CCC(N)=O)NC(=O)[C@H](CCC(=O)O)NC(=O)[C@H](CC(N)=O)NC(=O)[C@H](CCCCN)NC(=O)[C@H](CCC(=O)O)NC(=O)[C@H](CCC(N)=O)NC(=O)[C@H](CCC(N)=O)NC(=O)[C@H](CC(N)=O)NC(=O)[C@H](CCC(N)=O)NC(=O)[C@H](CO)NC(=O)[C@H](CCC(=O)O)NC(=O)[C@H](CCC(=O)O)NC(=O)[C@@H](NC(=O)[C@H](CC(C)C)NC(=O)[C@H](CO)NC(=O)[C@H](Cc6cnc[nH]6)NC(=O)[C@@H](NC(=O)[C@H](CC(C)C)NC(=O)[C@H](CO)NC(=O)[C@@H](NC(=O)[C@H](Cc6ccc(O)cc6)NC(=O)[C@H](CC(N)=O)NC(=O)[C@H](CC(N)=O)NC(C)=O)[C@@H](C)O)[C@@H](C)CC)[C@@H](C)CC)C(N)=O)nn5)C(C)(C)[C@@H]4CC[C@@]3(C)[C@]1(C)CC2 (Ac-NNYTSLIHSLIEESQNQQEKNEQELL[βAla]K(X9)-NH2) | 3.4 nM
8 | CCCc1cn(CC(=O)NCCCC[C@H](NC(=O)CCNC(=O)[C@H](CC(C)C)NC(=O)[C@H](CC(C)C)NC(=O)[C@H](CCC(=O)O)NC(=O)[C@H](CCC(N)=O)NC(=O)[C@H](CCC(=O)O)NC(=O)[C@H](CC(N)=O)NC(=O)[C@H](CCCCN)NC(=O)[C@H](CCC(=O)O)NC(=O)[C@H](CCC(N)=O)NC(=O)[C@H](CCC(N)=O)NC(=O)[C@H](CC(N)=O)NC(=O)[C@H](CCC(N)=O)NC(=O)[C@H](CO)NC(=O)[C@H](CCC(=O)O)NC(=O)[C@H](CCC(=O)O)NC(=O)[C@@H](NC(=O)[C@H](CC(C)C)NC(=O)[C@H](CO)NC(=O)[C@H](Cc2cnc[nH]2)NC(=O)[C@@H](NC(=O)[C@H](CC(C)C)NC(=O)[C@H](CO)NC(=O)[C@@H](NC(=O)[C@H](Cc2ccc(O)cc2)NC(=O)[C@H](CC(N)=O)NC(=O)[C@H](CC(N)=O)NC(C)=O)[C@@H](C)O)[C@@H](C)CC)[C@@H](C)CC)C(N)=O)nn1 (Ac-NNYTSLIHSLIEESQNQQEKNEQELL[βAla]K(X11)-NH2) | 2180 nM
9 | C=CCOC(=O)[C@]12CC[C@@H](C(=C)C)[C@@H]1[C@H]1CC[C@@H]3[C@@]4(C)CC[C@H](OC(=O)CCc5cn(CC(=O)NCCC(=O)N[C@@H](CC(N)=O)C(=O)N[C@@H](CC(N)=O)C(=O)N[C@@H](Cc6ccc(O)cc6)C(=O)N[C@H](C(=O)N[C@@H](CO)C(=O)N[C@@H](CC(C)C)C(=O)N[C@H](C(=O)N[C@@H](Cc6cnc[nH]6)C(=O)N[C@@H](CO)C(=O)N[C@@H](CC(C)C)C(=O)N[C@H](C(=O)N[C@@H](CCC(=O)O)C(=O)N[C@@H](CCC(=O)O)C(=O)N[C@@H](CO)C(=O)N[C@@H](CCC(N)=O)C(=O)N[C@@H](CC(N)=O)C(=O)N[C@@H](CCC(N)=O)C(=O)N[C@@H](CCC(N)=O)C(=O)N[C@@H](CCC(=O)O)C(=O)N[C@@H](CCCCN)C(=O)N[C@@H](CC(N)=O)C(=O)N[C@@H](CCC(=O)O)C(=O)N[C@@H](CCC(N)=O)C(=O)N[C@@H](CCC(=O)O)C(=O)N[C@@H](CC(C)C)C(=O)N[C@@H](CC(C)C)C(N)=O)[C@@H](C)CC)[C@@H](C)CC)[C@@H](C)O)nn5)C(C)(C)[C@@H]4CC[C@@]3(C)[C@]1(C)CC2 ({X1-βAla}-NNYTSLIHSLIEESQNQQEKNEQELL-NH2) | 197 nM
10 | C=C(C)[C@@H]1CC[C@]2(C(=O)O)CC[C@]3(C)[C@H](CC[C@@H]4[C@@]5(C)CC[C@H](OC(=O)CCc6cn(CC(=O)NCCC(=O)N[C@@H](CC(N)=O)C(=O)N[C@@H](CC(N)=O)C(=O)N[C@@H](Cc7ccc(O)cc7)C(=O)N[C@H](C(=O)N[C@@H](CO)C(=O)N[C@@H](CC(C)C)C(=O)N[C@H](C(=O)N[C@@H](Cc7cnc[nH]7)C(=O)N[C@@H](CO)C(=O)N[C@@H](CC(C)C)C(=O)N[C@H](C(=O)N[C@@H](CCC(=O)O)C(=O)N[C@@H](CCC(=O)O)C(=O)N[C@@H](CO)C(=O)N[C@@H](CCC(N)=O)C(=O)N[C@@H](CC(N)=O)C(=O)N[C@@H](CCC(N)=O)C(=O)N[C@@H](CCC(N)=O)C(=O)N[C@@H](CCC(=O)O)C(=O)N[C@@H](CCCCN)C(=O)N[C@@H](CC(N)=O)C(=O)N[C@@H](CCC(=O)O)C(=O)N[C@@H](CCC(N)=O)C(=O)N[C@@H](CCC(=O)O)C(=O)N[C@@H](CC(C)C)C(=O)N[C@@H](CC(C)C)C(N)=O)[C@@H](C)CC)[C@@H](C)CC)[C@@H](C)O)nn6)C(C)(C)[C@@H]5CC[C@]43C)[C@@H]12 ({X3-βAla}-NNYTSLIHSLIEESQNQQEKNEQELL-NH2) | 15 nM
